# Tests used:
# E. coli ATCC25922 = assay: Live/Dead staining and phase contrast microscopy; format: cell-based; conditions: 5xMIC, first 30 min of treatment, OD600 = 0.1
# Procedure: Exponentially growing E. coli ATCC25922 were treated for 30 min with either colistin (5xMIC) or ChIP (5xMIC) at OD600 = 0.1. An untreated culture was used as a control. 20 ml of treated or untreated culture was concentrated by centrifugation at 5,000 × g for 10 minutes, washed and re-suspended in 10 ml 0.9% NaCl. All samples were incubated at room temperature for 1 hour, mixing every 15 minutes, before washing twice with 10 ml 0.9% NaCl. After washing, the samples were re-suspended in 5 ml 0.9% NaCl, except for ChIP treated samples that were suspended in 1 ml 0.9% NaCl. Sample staining was performed according to the manufacturers instruction (LIVE/DEAD(tm) BacLight(tm) Bacterial Viability Kit, for microscopy & quantitative assays), and incubated for 15 minutes in the dark. 5 μl of the bacterial suspension was placed on an agar pad and analyzed by fluorescence microscopy using an AxioImager Z1 microscope (Carl Zeiss MicroImaging, Inc), with a × 100 objective and a Hamamatsu ORCA-ER C4742-80-12AG camera.
# [1] = cited from earlier work
# E. coli ATCC 25922 = assay: Time kill experiments; format: cell-based; conditions: 1xMIC, exponentially growing cells, 5×10^5-1×10^6 CFU/ml, MHB-II; plateau, regrowth evident after 3 hours
# E. coli MG1655 = assay: Macromolecular incorporation assay; format: cell-based; conditions: 10xMIC, high cell density (OD600 = 0.1, approximately 1×10^8 CFU/ml), AB minimal medium
# Procedure: Bacteria were grown in cation adjusted Müller-Hinton broth (MHB-II; Sigma-Aldrich) for MIC or Luria-Bertani (LB) broth at 37°C, supplemented with relevant antibiotics when required. For macromolecular incorporation measurements cells were grown in AB minimal medium ([65]) supplemented with 10 μg/ml thiamine and 0.2% glucose without Cas amino acids. Except for glucosamine incorporation where 0.2% glycerol was used as carbon source. Growth rate of the mcr-1 carrying BW25113 strain was determined in MHB-II on exponentially growing cells by measuring OD600 over time.
# Macromolecular synthesis was determined by incorporation of […], 3H-arginine or 3H-glucosamine into DNA, RNA, proteins and cell wall respectively, as described previously ([66]). Briefly, 500 µl samples of exponentially growing MG1655 cells were incubated with 0.375 µCi of the relevant precursor for 2 minutes (uridine), 4 minutes (thymidine and arginine), and 20 minutes (glucosamine). Reactions were stopped by adding 5 ml of ice-cold 5% TCA containing 0.1 M NaCl. Samples were filtered (ADVANTEC®, 25mm, lot no: 80302708) washed twice and dried overnight in scintillation vials (PV1AS, MERIDIAN, BIOTECHNOLOGIES Ltd) before counting on a HINDEX 300SL in 5 ml of scintillation fluid (Scintillation fluid, ULTIMA GOLD™, Perkin Elmer, Inc. LOT No.: 77-18151).
# [2] = system: E. coli ML-35p inner membrane; assay: Permeabilization assay (ONPG / β-galactosidase); format: cell-based; conditions: ChIP 4, 12 and 20 µg/ml for 20, 40 or 60 minutes; chloramphenicol 200 µg/ml pretreated; level higher than toluene or colistin 2 µg/ml
# Procedure: Exponentially growing cells of E. coli ML35 (LacI^- LacY^- LacZ^+) were treated with chloramphenicol (200 µg/ml) to stop protein synthesis. Chloramphenicol treated samples were incubated with ChIP (4, 12 and 20 µg/ml) and colistin (2 µg/ml) for 20, 40 or 60 minutes (12 samples total). 200 µL peptide treated cells were added to 1 ml Z-buffer (0.06M Na2HPO4, 0.04M NaH2PO4, 0.01M KCL, 0.001M MgSO4 and pH = 7) containing 1 mg/ml Ortho-Nitrophenyl-β-galactoside (ONPG). Samples were left at room temperature 15 minutes before stopping color development by addition of 0.5 ml Na2CO3 (1M). Toluene treated cells were included as a control for permeabilized cells. β-galactosidase activity was detected by OD420 measurements.
# P. aeruginosa B3-CFI = conditions: clinical isolate, colistin resistant, MHB-II, 37°C, ~5×10^5 CFU/ml, triplicate
smiles,measurement,setting,value
CC[C@@H](C)[C@@H](NC(=O)[C@@H](CCCCN)NC(=O)[C@@H](CCCCN)NC(=O)[C@@H](Cc1ccccc1)NC(=O)[C@@H](CC(C)C)NC(=O)[C@@H](CCCCN)NC(=O)[C@H](N)CCCCN)C(=O)N[C@H](CC(C)C)C(=O)N[C@H](CCCNC(=N)N)C(=O)N[C@H](Cc1ccc(O)cc1)C(=O)N[C@H](CC(C)C)C(N)=O [ChIP],"viability and lysis (SYTO9 / propidium iodide, phase contrast)",E. coli ATCC25922,"loss of viability, but without lysis"
same,hemolytic activity,[1],low hemolytic activity
same,reduction in viable cells,E. coli ATCC 25922,3-4 log
same,"incorporation of radioactive labelled precursors into DNA, RNA, protein and peptidoglycan",E. coli MG1655,blocked incorporation
same,"β-galactosidase activity (ONPG, OD420) of treated cells",[2],increased in a dose dependent manner
same,MIC,P. aeruginosa B3-CFI,8 µg/mL

# — publication doi:10.1101/2021.12.13.472350v1, “An amphipathic and cationic antimicrobial peptide kills colistin resistant Gram-negative pathogens in vivo” (bioRxiv, 2021)
